# Where two headings read alike, the source gives them in different places.
# How the values were obtained:
# MOLM-13 cells = assay: MOLM-13 cell proliferation experiment; format: cell-based; conditions: Homo sapiens
# Method: After 3 days, 5 µL of CellTiter-Glo reagent (Promega, ZG7572) was added to each well, and the plates were kept at room temperature in the dark for 10 minutes. The […] was detected by Spectra max i3 (Molecular Devices). The relative growth rate of the treated cells was compared with that of DMSO control.
# [1] = system: phosphorylation level of intracellular protein kinase (ERK) in MOLM13 cells; assay: Phosphorylated protein kinase (p-ERK) cell experiment (AlphaLISA); format: cell-based; conditions: Homo sapiens, MOLM-13, MOLM13 cells
# Method: The inhibitory activities of the compounds on the phosphorylation level of intracellular protein kinase (ERK) were determined by AlphaLISA method.
# Firstly, the cells were treated with the compounds. The compounds to be tested were subjected to 3-fold dilution with 100% DMSO, and a total of 9 different concentration gradients were set. MOLM13 cells were then seeded into 96-well plates at a density of 30,000 cells per well in a volume of 100 µL per well. […] of DMSO or the test compounds with different concentrations was then transferred into each well, setting two duplicates for each concentration, and the final concentration of DMSO was controlled at 0.5%.
# Secondly, the cells were lysed. After 2 hours of cell treatment, the medium was removed, and the cells were washed 3 times with phosphate buffered saline. 50 µL of freshly prepared lysis buffer was added to each well, and the plates were shaken and kept at room temperature for 10 minutes.
# Thirdly, the phosphorylated extracellular signal-regulated kinase (p-ERK) was detected by AlphaLISA@ SureFire® Ultra™ p-ERK 1/2 (Thr202/Tyr204) kit (Perkin Elmer, ALSU-PERK-A10K). 10 µL of the above lysate was transferred to a 384-well plate (Perkin Elmer, 6005350), and the phosphorylation level of the extracellular signal-regulated kinase of the sample was detected according to the product instructions. The signal was read using AlphaScreen detector on Spectra max i3 (Molecular Devices). The percentage of inhibition (%) was calculated by the following formula: Inhibition percentage(%)=(1−p-ERK signal of compound-treated cells/p-ERK signal of DMSO-treated cells)*100
# SHP2^E76A protein = SHP2^E76A protein (Homo sapiens (Human), UniProt Q06124, E76A); assay: SHP2 enzyme activity inhibition experiment; format: biochemical
# Chain of SHP2^E76A protein (Q06124 whole entry E76A): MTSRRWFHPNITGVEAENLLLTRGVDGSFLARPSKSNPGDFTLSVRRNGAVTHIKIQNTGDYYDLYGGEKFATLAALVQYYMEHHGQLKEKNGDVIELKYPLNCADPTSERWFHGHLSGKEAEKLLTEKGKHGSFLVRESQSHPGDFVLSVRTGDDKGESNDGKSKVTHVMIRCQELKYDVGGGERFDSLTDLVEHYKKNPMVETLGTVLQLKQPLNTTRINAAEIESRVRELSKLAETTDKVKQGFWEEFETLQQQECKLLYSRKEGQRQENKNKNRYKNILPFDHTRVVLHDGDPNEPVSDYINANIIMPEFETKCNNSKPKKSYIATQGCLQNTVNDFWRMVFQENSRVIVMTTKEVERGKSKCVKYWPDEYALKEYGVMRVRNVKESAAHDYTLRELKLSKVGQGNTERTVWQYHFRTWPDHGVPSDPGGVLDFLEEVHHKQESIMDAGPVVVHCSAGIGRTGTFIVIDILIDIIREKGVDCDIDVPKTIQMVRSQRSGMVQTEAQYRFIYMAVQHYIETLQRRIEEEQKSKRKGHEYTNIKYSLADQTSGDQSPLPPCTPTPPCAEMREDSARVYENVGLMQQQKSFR
# How it was run: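 Compounds tested at 10 concentrations in 3-fold serial dilution. IC50 from a four-parameter Hill-slope nonlinear fit of enzyme activity versus concentration.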
# [2] = MOLM-13, 72 h, MOLM-13 cell proliferation, 3 days, Tables 3.1 and 3.2, read-out: IC50
# [3] = p-ERK, 2 hours of cell treatment, Tables 2.1 and 2.2, read-out: IC50
# [4] = SHP2 enzyme activity, Tables 1.1 and 1.2, read-out: IC50
# [5] = MOLM-13, read-out: MOLM-13 cell proliferation IC50
# [6] = Table 4, read-out: SHP2 enzyme activity IC50
Compound,IC50 (MOLM-13 cells; [2]) [µM],"IC50 [1, 3] [µM]",IC50 (SHP2^E76A protein; [4]) [µM],IC50 (MOLM-13 cells; [5]) [µM],"IC50 ([1]; Table 4, read-out: p-ERK IC50) [µM]",IC50 (SHP2^E76A protein; [6]) [µM]
"N[C@@H]1CCCC12CCN(c1ncc(Sc3cccnc3C(F)(F)F)c3nncn13)CC2 [(R)-8-(8-((2-(trifluoromethyl)pyridin-3-yl)thio)-[1,2,4]triazolo[4,3-c]pyrimidin-5-yl)-8-azaspiro[4.5]decan-1-amine]",0.1 to 1,1 to 10,0.1 to 1,,,
"N[C@@H]1CCCC12CCN(c1ncc(Sc3cccnc3C(F)(F)F)c3nccn13)CC2 [(R)-8-(8-((2-(trifluoromethyl)pyridin-3-yl)thio)imidazo[1,2-c]pyrimidin-5-yl)-8-azaspiro[4.5]decan-1-amine]",0.1 to 1,0.1 to 1,< 0.1,,,
"Nc1nccc(Sc2cnc(N3CCC4(CCC[C@H]4N)CC3)n3ncnc23)c1Cl [(R)-8-(8-((2-amino-3-chloropyridin-4-yl)thio)-[1,2,4]triazolo[1,5-c]pyrimidin-5-yl)-8-azaspiro[4.5]decan-1-amine]",0.1 to 1,1 to 10,0.1 to 1,,,
"Nc1nccc(Sc2cnc(N3CCC4(CCC[C@H]4N)CC3)n3ccnc23)c1Cl [(R)-8-(8-((2-amino-3-chloropyridin-4-yl)thio)imidazo[1,2-c]pyrimidin-5-yl)-8-azaspiro[4.5]decan-1-amine]",0.1 to 1,0.1 to 1,< 0.1,0.27,0.41,0.02
"Nc1cc(Sc2cnc(N3CCC4(CCC[C@H]4N)CC3)n3ccnc23)c(Cl)cn1 [(R)-8-(8-((2-amino-5-chloropyridin-4-yl)thio)imidazo[1,2-c]pyrimidin-5-yl)-8-azaspiro[4.5]decan-1-amine]",< 0.1,< 0.1,< 0.1,0.043,0.032,0.025
"N[C@@H]1CCCC12CCN(c1ncc(Sc3ccccc3Cl)c3nncn13)CC2 [(R)-8-(8-((2-chlorophenyl)thio)-[1,2,4]triazolo[4,3-c]pyrimidin-5-yl)-8-azaspiro[4.5]decan-1-amine]",0.1 to 1,0.1 to 1,0.1 to 1,0.485,0.548,0.14
"COc1ccccc1Sc1cnc(N2CCC3(CCC[C@H]3N)CC2)n2ccnc12 [(R)-8-(8-((2-methoxyphenyl)thio)imidazo[1,2-c]pyrimidin-5-yl)-8-azaspiro[4.5]decan-1-amine]",0.1 to 1,0.1 to 1,< 0.1,0.21,0.469,0.083
"N[C@@H]1CCCC12CCN(c1ncc(Sc3ccncc3C(F)(F)F)c3nccn13)CC2 [(R)-8-(8-((3-(trifluoromethyl)pyridin-4-yl)thio)imidazo[1,2-c]pyrimidin-5-yl)-8-azaspiro[4.5]decan-1-amine]",0.1 to 1,0.1 to 1,< 0.1,,,
"Nc1cccc(Sc2cnc(N3CCC4(CCC[C@H]4N)CC3)n3cnnc23)c1Cl [(R)-8-(8-((3-amino-2-chlorophenyl)thio)-[1,2,4]triazolo[4,3-c]pyrimidin-5-yl)-8-azaspiro[4.5]decan-1-amine]",0.1 to 1,0.1 to 1,< 0.1,0.389,0.245,0.025
"CN(C)c1nccc(Sc2cnc(N3CCC4(CCC[C@H]4N)CC3)n3ccnc23)c1Cl [(R)-8-(8-((3-chloro-2-(dimethylamino)pyridin-4-yl)thio)imidazo[1,2-c]pyrimidin-5-yl)-8-azaspiro[4.5]decan-1-amine]",0.1 to 1,0.1 to 1,< 0.1,,,
"N[C@@H]1CCCC12CCN(c1ncc(Sc3ccnc(F)c3Cl)c3nccn13)CC2 [(R)-8-(8-((3-chloro-2-fluoropyridin-4-yl)thio)imidazo[1,2-c]pyrimidin-5-yl)-8-azaspiro[4.5]decan-1-amine]",0.1 to 1,0.1 to 1,< 0.1,,,
"COc1nccc(Sc2cnc(N3CCC4(CCC[C@H]4N)CC3)n3ccnc23)c1Cl [(R)-8-(8-((3-chloro-2-methoxypyridin-4-yl)thio)imidazo[1,2-c]pyrimidin-5-yl)-8-azaspiro[4.5]decan-1-amine]",0.1 to 1,0.1 to 1,< 0.1,,,
"Cc1nccc(Sc2cnc(N3CCC4(CCC[C@H]4N)CC3)n3ccnc23)c1Cl [(R)-8-(8-((3-chloro-2-methyl-pyridin-4-yl)thio)imidazo[1,2-c]pyrimidin-5-yl)-8-azaspiro[4.5]decan-1-amine]",< 0.1,0.1 to 1,< 0.1,0.058,0.18,0.04
"Cc1nccc(Sc2cnc(N3CCC4(CCC[C@H]4N)CC3)n3cnnc23)c1Cl [(R)-8-(8-((3-chloro-2-methylpyridin-4-yl)thio)-[1,2,4]triazolo[4,3-c]pyrimidin-5-yl)-8-azaspiro[4.5]decan-1-amine]",0.1 to 1,0.1 to 1,< 0.1,0.232,0.177,0.027
"N[C@@H]1CCCC12CCN(c1ncc(Sc3ccnnc3Cl)c3nccn13)CC2 [(R)-8-(8-((3-chloropyridazin-4-yl)thio)imidazo[1,2-c]pyrimidin-5-yl)-8-azaspiro[4.5]decan-1-amine]",0.1 to 1,0.1 to 1,0.1 to 1,,,
"N[C@@H]1CCCC12CCN(c1ncc(Sc3ccncc3Cl)c3nncn13)CC2 [(R)-8-(8-((3-chloropyridin-4-yl)thio)-[1,2,4]triazolo[4,3-c]pyrimidin-5-yl)-8-azaspiro[4.5]decan-1-amine]",0.1 to 1,0.1 to 1,0.1 to 1,0.324,0.357,0.1
"N[C@@H]1CCCC12CCN(c1ncc(Sc3ccncc3Cl)c3nccn13)CC2 [(R)-8-(8-((3-chloropyridin-4-yl)thio)imidazo[1,2-c]pyrimidin-5-yl)-8-azaspiro[4.5]decan-1-amine]",0.1 to 1,0.1 to 1,0.1 to 1,,,
"Nc1cc(Sc2cnc(N3CCC4(CCC[C@H]4N)CC3)n3ncnc23)c(Cl)c(Cl)n1 [(R)-8-(8-((6-amino-2,3-dichloropyridin-4-yl)thio)-[1,2,4]triazolo[1,5-c]pyrimidin-5-yl)-8-azaspiro[4.5]decan-1-amine]",0.1 to 1,0.1 to 1,0.1 to 1,,,
"Nc1cc(Sc2cnc(N3CCC4(CCC[C@H]4N)CC3)n3cnnc23)c(Cl)c(Cl)n1 [(R)-8-(8-((6-amino-2,3-dichloropyridin-4-yl)thio)-[1,2,4]triazolo[4,3-c]pyrimidin-5-yl)-8-azaspiro[4.5]decan-1-amine]",0.1 to 1,0.1 to 1,< 0.1,0.303,0.75,0.02
"Nc1cc(Sc2cnc(N3CCC4(CC3)CC(F)(F)C[C@H]4N)n3ccnc23)c(Cl)c(Cl)n1 [(R)-8-(8-((6-amino-2,3-dichloropyridin-4-yl)thio)imidazo[1,2-c]pyrimidin-5-yl)-3,3-difluoro-8-azaspiro[4.5]decan-1-amine]",0.1 to 1,< 0.1,< 0.1,0.15,0.062,0.035
